Read-outs that look alike come from different tables or passages of the source.
Biological target: T1, human nAChRα6-α3 chimera, in addition to β2 and β3^V273S subunits (Homo sapiens, UniProt P32297+Q15825)
T1 construct: expressed in transfected cells
Experiment: fluorescence-based calcium assay: inhibition of nicotine stimulated nAChRα6 activity (FLIPR)
Settings: HEK cell line stably expressing the receptor, 10 min pre-incubation, nicotine EC80, 10-point curve, duplicate wells
In short: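 HEK cells stably expressing the human α6-α3 chimera with β2 and β3^V273S were loaded with calcium dye at 30° C. Compounds were pre-incubated for 10 min before nicotine at EC80, and the fluorescence change was read on a FLIPR. Ten-point half-log concentration-response, duplicate wells.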

T1 sequence (Q05901 25-458 V273S): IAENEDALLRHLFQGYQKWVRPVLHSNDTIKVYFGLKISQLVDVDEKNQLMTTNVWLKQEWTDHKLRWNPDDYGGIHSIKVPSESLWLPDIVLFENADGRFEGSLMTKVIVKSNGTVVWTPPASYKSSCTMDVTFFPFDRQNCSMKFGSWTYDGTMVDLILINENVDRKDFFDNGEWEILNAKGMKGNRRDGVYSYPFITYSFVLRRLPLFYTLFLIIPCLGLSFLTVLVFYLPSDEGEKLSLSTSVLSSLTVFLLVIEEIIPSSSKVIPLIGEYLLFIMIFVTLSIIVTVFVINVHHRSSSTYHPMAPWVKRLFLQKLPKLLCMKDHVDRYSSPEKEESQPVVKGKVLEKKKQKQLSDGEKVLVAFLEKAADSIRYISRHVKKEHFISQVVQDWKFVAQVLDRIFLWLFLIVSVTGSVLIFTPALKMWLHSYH
T1 sequence (P17787 26-502, stated change not applied, further chain): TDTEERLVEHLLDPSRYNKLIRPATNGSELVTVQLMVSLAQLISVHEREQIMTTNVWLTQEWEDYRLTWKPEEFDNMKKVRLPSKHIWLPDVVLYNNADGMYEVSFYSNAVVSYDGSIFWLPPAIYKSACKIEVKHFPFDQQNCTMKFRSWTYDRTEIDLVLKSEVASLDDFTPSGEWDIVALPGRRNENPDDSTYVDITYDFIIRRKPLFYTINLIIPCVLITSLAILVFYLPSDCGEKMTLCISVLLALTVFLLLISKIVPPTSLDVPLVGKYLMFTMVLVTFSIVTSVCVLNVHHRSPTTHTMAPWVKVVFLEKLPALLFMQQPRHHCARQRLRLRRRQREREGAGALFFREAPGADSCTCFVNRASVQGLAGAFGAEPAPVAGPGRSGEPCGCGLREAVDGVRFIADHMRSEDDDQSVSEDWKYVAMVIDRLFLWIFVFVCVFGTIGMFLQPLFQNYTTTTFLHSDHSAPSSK
T1 sequence (Q15825+P32297 fused with the stated changes): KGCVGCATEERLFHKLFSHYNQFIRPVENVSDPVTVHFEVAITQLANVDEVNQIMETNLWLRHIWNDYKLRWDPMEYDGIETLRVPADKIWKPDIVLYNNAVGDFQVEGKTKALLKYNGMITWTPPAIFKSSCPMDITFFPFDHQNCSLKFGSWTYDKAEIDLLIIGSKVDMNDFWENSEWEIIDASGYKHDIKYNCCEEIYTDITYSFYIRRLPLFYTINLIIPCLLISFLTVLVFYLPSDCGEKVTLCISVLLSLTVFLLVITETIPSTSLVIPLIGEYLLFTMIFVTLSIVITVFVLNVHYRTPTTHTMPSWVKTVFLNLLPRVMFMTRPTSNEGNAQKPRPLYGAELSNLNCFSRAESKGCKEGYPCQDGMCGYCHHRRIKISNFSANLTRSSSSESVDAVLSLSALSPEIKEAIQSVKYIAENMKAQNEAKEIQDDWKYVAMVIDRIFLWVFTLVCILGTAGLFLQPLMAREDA

SMILES	IC50 (read-out: IC50) [µM]	IC50 (IC50 (μM)) [µM]
COc1ccc(-c2cnc(NCC3CCCN(C)C3)nc2C)c(F)c1 (stereo not shown) [Example 30, 5-(2-fluoro-4-methoxyphenyl)-4-methyl-N-((1-methylpiperidin-3-yl)methyl) pyrimidin-2-amine]	0.082	
COc1ccc(-c2cnc(NCC3CCN(C)C3)nc2C#N)c(F)c1 (stereo not shown) [Example 31, 5-(2-fluoro-4-methoxyphenyl)-2-(((1-methylpyrrolidin-3-yl)methyl)amino) pyrimidine-4-carbonitrile]	0.082	
COc1ccc(-c2cnc(NCC3COCCN3C)nc2C)c(F)c1 (stereo not shown) [Example 32, 5-(2-fluoro-4-methoxyphenyl)-4-methyl-N-((4-methylmorpholin-3-yl)methyl)pyrimidin-2-amine]	0.099	
COc1ccc(F)c(-c2cnc(NCC3CCCCN3C)nc2C)c1 (stereo not shown) [Example 33, 5-(2-fluoro-5-methoxyphenyl)-4-methyl-N-((1-methylpiperidin-2-yl)methyl) pyrimidin-2-amine]	0.045	
COc1ccc(F)c(-c2cnc(NCC3CCCN(C)C3)nc2C)c1 (stereo not shown) [Example 34, 5-(2-fluoro-5-methoxyphenyl)-4-methyl-N-((1-methylpiperidin-3-yl)methyl) pyrimidin-2-amine]	0.13	
COc1ccc(-c2cnc(NCC3CCCCN3C)nc2C)c(Cl)c1 (stereo not shown) [Example 35, 5-(2-chloro-4-methoxyphenyl)-4-methyl-N-((1-methylpiperidin-2-yl)methyl) pyrimidin-2-amine]		0.029
COc1ccc(-c2cnc(NCC3CN(C)CCO3)nc2C)c(F)c1 (stereo not shown) [Example 36, 5-(2-fluoro-4-methoxyphenyl)-4-methyl-N-((4-methylmorpholin-2-yl)methyl)pyrimidin-2-amine]	0.14	
COc1ccc(-c2cnc(NCC3CCN(C)C3)nc2C2CC2)c(F)c1 (stereo not shown) [Example 37, 4-cyclopropyl-5-(2-fluoro-4-methoxyphenyl)-N-((1-methylpyrrolidin-3-yl)methyl)pyrimidin-2-amine]	0.103	
COc1ccc(-c2cnc(NC3CCN(C)CC3)nc2C)c(F)c1 [Example 40, 5-(2-fluoro-4-methoxyphenyl)-4-methyl-N-(1-methylpiperidin-4-yl) pyrimidin-2-amine]	0.068	
COc1ccc(-c2cnc(NC3CCN(C(C)C)CC3)nc2C)c(F)c1 [Example 41, 5-(2-fluoro-4-methoxyphenyl)-N-(1-isopropylpiperidin-4-yl)-4-methyl-pyrimidin-2-amine]	0.081	
Cc1nc(NCc2cccnc2)ncc1-c1ccc(F)cc1F [Example 42, 5-(2,4-difluorophenyl)-4-methyl-N-(pyridin-3-ylmethyl)pyrimidin-2-amine]	1.2	
COc1ccc(-c2cnc(NC3CCC(N(C)C)C3)nc2C(F)(F)F)c(F)c1 (stereo not shown) [Example 43, N^1-(5-(2-fluoro-4-methoxyphenyl)-4-(trifluoromethyl)pyrimidin-2-yl)-N^3,N^3-dimethylcyclopentane-1,3-diamine]	0.178	
COc1ccc(-c2cnc(NC3CCOCC3)nc2C)c(F)c1 [Example 45, 5-(2-fluoro-4-methoxyphenyl)-4-methyl-N-(tetrahydro-2H-pyran-4-yl) pyrimidin-2-amine]	1.31	
COc1ccc(-c2cnc(NC3CCCOC3)nc2C)c(F)c1 (stereo not shown) [Example 46, 5-(2-fluoro-4-methoxyphenyl)-4-methyl-N-(tetrahydro-2H-pyran-3-yl) pyrimidin-2-amine]	2.18	
COc1ccc(-c2cnc(NCC3CCCO3)nc2C)c(Cl)c1 (stereo not shown) [Example 47, 5-(2-chloro-4-methoxyphenyl)-4-methyl-N-((tetrahydrofuran-2-yl)methyl) pyrimidin-2-amine]	1.25	
COc1ccc(-c2cnc(NC3CCCN(C(C)C)C3)nc2C)c(F)c1 (stereo not shown) [Example 48, 5-(2-fluoro-4-methoxyphenyl)-N-(1-isopropylpiperidin-3-yl)-4-methyl-pyrimidin-2-amine]	0.083	
COc1ccc(-c2cnc(NCC3CCCN(C(C)C)C3)nc2C)c(F)c1 (stereo not shown) [Example 49, 5-(2-fluoro-4-methoxyphenyl)-N-((1-isopropylpiperidin-3-yl)methyl)-4-methyl-pyrimidin-2-amine]	0.069	
COc1ccc(-c2cnc(NCC3CCCCN3C(C)C)nc2C)c(F)c1 (stereo not shown) [Example 50, 5-(2-fluoro-4-methoxyphenyl)-N-((1-isopropylpiperidin-2-yl)methyl)-4-methyl-pyrimidin-2-amine]	0.103	
COc1ccc(-c2cnc(NCC3CCCOC3)nc2C)c(F)c1 (stereo not shown) [Example 51, 5-(2-fluoro-4-methoxyphenyl)-4-methyl-N-((tetrahydro-2H-pyran-3-yl)methyl)pyrimidin-2-amine]	1.1	
Cc1nc(NC2CCC(S(C)(=O)=O)C2)ncc1-c1ccc(F)cc1F (stereo not shown) [Example 52, 5-(2,4-difluorophenyl)-4-methyl-N-(3-(methylsulfonyl)cyclopentyl) pyrimidin-2-amine]	1.53	

SMILES	IC50 (read-out: IC50) [µM]	IC50 (IC50 (μM)) [µM]
Cc1nc(NC2CCCN(CC(F)(F)F)C2)ncc1-c1ccc(F)cc1F (stereo not shown) [Example 60, 5-(2,4-difluorophenyl)-4-methyl-N-(1-(2,2,2-trifluoroethyl)piperidin-3-yl) pyrimidin-2-amine]	1.18	
COc1ccc(F)c(-c2cnc(NCC3COCCN3C)nc2C)c1 (stereo not shown) [Example 61, 5-(2-fluoro-5-methoxyphenyl)-4-methyl-N-((4-methylmorpholin-3-yl)methyl)pyrimidin-2-amine]	0.533	
COc1ccc(-c2cnc(NCC3COCCN3C)nc2C)c(Cl)c1 (stereo not shown) [Example 62, 5-(2-chloro-4-methoxyphenyl)-4-methyl-N-((4-methylmorpholin-3-yl)methyl)pyrimidin-2-amine]	0.064	
COc1ccc(-c2cnc(NCc3cncn3C)nc2C)c(Cl)c1 [Example 63, 5-(2-chloro-4-methoxyphenyl)-4-methyl-N-((1-methyl-1H-imidazol-5-yl)methyl)pyrimidin-2-amine]	0.141	
CN1CCC(Nc2ncc(-c3ccc(F)cc3F)c(C#N)n2)CC1 [Example 66, 5-(2,4-difluorophenyl)-2-((1-methylpiperidin-4-yl)amino)pyrimidine-4-carbonitrile]	0.094	
Cc1nc(NC2CCN(C(C)C)CC2)ncc1-c1ccc(F)cc1F [Example 67, 5-(2,4-difluorophenyl)-N-(1-isopropylpiperidin-4-yl)-4-methyl-pyrimidin-2-amine]	0.066	
COc1ccc(-c2c(C)nc(NCC3CCCN3C)nc2C)c(F)c1 (stereo not shown) [Example 70, 5-(2-fluoro-4-methoxyphenyl)-4,6-dimethyl-N-((1-methylpyrrolidin-2-yl)methyl)pyrimidin-2-amine]	0.072	
Cc1nc(NC2CCN(C)CC2)ncc1-c1ccc(F)cc1F [Example 71, 5-(2,4-difluorophenyl)-4-methyl-N-(1-methylpiperidin-4-yl)pyrimidin-2-amine]	0.054	
Cc1nc(NC2CCCN(C(C)C)C2)ncc1-c1ccc(F)cc1F (stereo not shown) [Example 72, 5-(2,4-difluorophenyl)-N-(1-isopropylpiperidin-3-yl)-4-methyl-pyrimidin-2-amine]	0.052	
COc1ccc(-c2c(C)nc(NCC3CCCN3C)nc2OC)c(F)c1 (stereo not shown) [Example 75, 5-(2-fluoro-4-methoxyphenyl)-4-methoxy-6-methyl-N-((1-methylpyrrolidin-2-yl)methyl)pyrimidin-2-amine]	0.094	
Cc1nc(NC[C@H]2CC(F)(F)CN2C)ncc1-c1ccc(F)cc1F [Example 80, (R)—N-((4,4-difluoro-1-methylpyrrolidin-2-yl)methyl)-5-(2,4-difluorophenyl)-4-methyl-pyrimidin-2-amine]	1.47	
COc1ccc(-c2cnc(NC3CCN(C(C)C)CC3)nc2C#N)c(F)c1 [Example 81, 5-(2-fluoro-4-methoxyphenyl)-2-((1-isopropylpiperidin-4-yl)amino) pyrimidine-4-carbonitrile]	0.098	
Cc1nc(NCC2CCCN2)ncc1-c1ccc(F)cc1F (stereo not shown) [Example 82, 5-(2,4-difluorophenyl)-4-methyl-N-(pyrrolidin-2-ylmethyl)pyrimidin-2-amine]	0.018	
CCN1CCCC1CNc1ncc(-c2ccc(F)cc2F)c(C)n1 (stereo not shown) [Example 85, 5-(2,4-difluorophenyl)-N-((1-ethylpyrrolidin-2-yl)methyl)-4-methyl-pyrimidin-2-amine]	0.051	
[2H]C([2H])([2H])N1CCCC1CNc1ncc(-c2ccc(F)cc2F)c(C)n1 (stereo not shown) [Example 87]	0.045	
Cc1nc(NC2CCN(C(C)C)CC2)ncc1-c1ccc(OC(F)(F)F)cc1F [Example 88, 5-(2-fluoro-4-(trifluoromethoxy)phenyl)-N-(1-isopropylpiperidin-4-yl)-4-methyl-pyrimidin-2-amine]	0.149	
Cc1nc(NC2CCN(C)CC2)ncc1-c1ccc(OC(F)(F)F)cc1F [Example 89, 5-(2-fluoro-4-(trifluoromethoxy)phenyl)-4-methyl-N-(1-methylpiperidin-4-yl)pyrimidin-2-amine]	0.18	
[2H]C([2H])([2H])N1CCC[C@H]1CNc1ncc(-c2ccc(F)cc2F)c(C)n1 [Example 90a, (S)-5-(2,4-difluorophenyl)-4-methyl-N-((1-(trideuteriomethyl)pyrrolidin-2-yl)methyl)pyrimidin-2-amine]	0.211	
[2H]C([2H])([2H])N1CCC[C@@H]1CNc1ncc(-c2ccc(F)cc2F)c(C)n1 [Example 90b, (R)-5-(2,4-difluorophenyl)-4-methyl-N-((1-(trideuteriomethyl)pyrrolidin-2-yl)methyl)pyrimidin-2-amine]	0.186	
Cc1nc(NC[C@H]2CCCN2C)ncc1-c1ccc(C(F)(F)F)cc1F [Example 91a, (R)-5-(2-fluoro-4-(trifluoromethyl)phenyl)-4-methyl-N-((1-methylpyrrolidin-2-yl)methyl)pyrimidin-2-amine]	0.008	
